Measured values: patent US5002969A, “Pharmaceutical compositions containing titanocene complexes and use of these complexes as cytostatic agents” (priority 1985, dated 1991)

Key:
Ehrlich ascites tumor = assay: Activity against Ehrlich Ascites Tumor; type: in vivo, Female CF1 mice; conditions: single i.p. dose, 24 h after tumor inoculation
Method: Female CF1 mice are each given about 6×10^6 Ehrlich ascites tumor cells by means of intraperitoneal injection and, 24 hours later, a single intraperitoneal dose of substance dose range of 20 to 500 mg/kg) in physiological saline solution (0.4 ml). In each case 5 to 10 animals are tested per dose. If appropriate, the preparation can be buffered to a pH of 4 to 7, for example with sodium bicarbonate or tris-(hydroxymethyl)-aminomethane, in order to avoid local irritation at the injection site. A group of untreated control animals which were injected intraperitoneally with 0.4 ml of physiological saline solution without administration of the substance is also run for each test series.
The tumor development in the individual dose ranges is evaluated by means of the weight course and survival time. The dose-dependent number of tumor deaths, toxicity deaths and surviving, and the associated percentage increase in the average survival time are determined for each substance.

ascitic Sarcoma 180 = assay: Activity against ascitic Sarcoma 180; type: in vivo, female NMRI mice; conditions: for Survivors/Animals Treated: day 80; for MST (mean survival time): mean (range)
Description: Each animal obtained about 10^7 tumor cells.
Every day occuring deaths were noted.

B16 Melanoma = assay: Activity against B16 Melanoma; type: in vivo, female B6 D2 F1 mice; conditions: day 10
Method: (§1) The B16 melanoma and colon 38 carcinoma used were obtained from the NCI Liasion Office, Institut Jules Bordet, Brussels, Belgium and, for propagation, were kept as solid, subcutaneously growing tumor lines on male C57BL/6J mice. For testing, the tumors were transplanted to female B6 D2 F1 mice. All animals were kept under standard conditions (22°-23° C., tap water and altromin food ad libitum, 12-h light-dark rhythm).
(§2) For tumor transplantation on day 0 of the testing experiments, solid tumors were removed from donor mice, minced with scissors and reduced to small particles. After suspension in twofold volumes of Hank's balanced salt solution, volumes of 0.3 ml were inoculated subcutaneously into the axillary region, resulting in the growth of solitary solid tumors.
(§3) The test compounds were administered either as a single injection on day 1 or as three injections on days 1, 3 and 5, or as five injections on days 1, 3, 5, 7 and 9. The different doses applied and the animal distribution are recorded in table 4. The substances, dissolved or suspended in a DMSO-saline mixture (1/9=v/v), were always injected intraperitoneally. The concentrations were selected in such a manner that each mouse received a total volume of 0.4 to 0.5 ml. Control animals only obtained one, three or five injections of the DMSO-saline mixture (0.5 ml/animal) without drug addition.
(§4) The number of deaths was recorded daily. Deaths occuring within 7 days (single injection), 11 days (three injections) or 15 days (five injections) after tumor transplantation were defined as deaths due to substance toxicity.
(§5) In the case of B16 melonoma, the tumors were removed and weighed on day 10 for the single and three injections or on day 15 for the five injections. Colon 38 carcinomas were always evaluated on day 15 of the experiment.

Colon 38 Carcinoma = assay: Activity against Colon 38 Carcinoma; type: in vivo, female B6 D2 F1 mice; conditions: day 15
Method: as §1, §2, §3, §4, §5

solid Sarcoma 180 = assay: Activity against solid Sarcoma 180; conditions: day 9; for Tumor Weight: mean ± SD
Rectum Adenocarcinoma = assay: Activity against heterotransplanted human rectum adenocarcinoma; type: in vivo; conditions: 5 × 30 mg/kg; day 25
Method: (§6) The same testing procedure as in the tests with B16 melanoma and colon 38 carcinoma was employed. The test compounds were applied in equivalent and equitoxic doses, subdivided into five injections. The first injection was administered on day 8 (mammary carcinoma), day 10 (adenocarcinoma of rectum and lung) and day 26 (small cell lung carcinoma) of the tumor transplantation. The T/C values were determined 3 days after the last substance injection, i.e., on day 23 (mammary carcinoma), day 25 (adenocarcinoma of rectum and lung) and day 41 (small cell lung carcinoma).

Lung Adenocarcinoma = assay: Activity against heterotransplanted human lung adenocarcinoma; type: in vivo; conditions: 5 × 30 mg/kg; day 25
Method: as §6

[1] = system: Lung Small Cell Carcinoma; assay: Activity against heterotransplanted human small cell lung carcinoma; type: in vivo; conditions: 5 × 30 mg/kg; day 41
Method: as §6

Mammary Carcinoma = assay: Activity against heterotransplanted human mammary carcinoma; type: in vivo, human tumor xenograft tumor xenograft tumor xenograft; conditions: 5 × 30 mg/kg; day 23
Method: as §6

Cl.Cl.Nc1ccc([S][Ti]([S]c2ccc(N)cc2)([CH]2C=CC=C2)[CH]2C=CC=C2)cc1 [Compound 1, Bis(p-aminothiophenolato)bis(.eta.^5 -cyclopentadienyl)titanium(IV)-dihydrochloride]
Optimal Treating Rate (Ehrlich ascites tumor): 100% | Therapeutic Index (LD50/ED90) (Ehrlich ascites tumor): 4,3 | ILS (increase in life span) (ascitic Sarcoma 180; 1 × 60 mg/kg): 15% | ILS (increase in life span) (ascitic Sarcoma 180; 1 × 100 mg/kg): 139% | Survivors/Animals Treated (ascitic Sarcoma 180; 1 × 100 mg/kg): 1/5 | MST (mean survival time) (ascitic Sarcoma 180; 1 × 100 mg/kg): 39,4 (19-80) d | T/C (B16 Melanoma; 1 × 100 mg/kg i.p.): 80% | T/C (B16 Melanoma; 3 × 60 mg/kg i.p.): 36% | T/C (Colon 38 Carcinoma; 1 × 100 mg/kg i.p.): 61% | T/C (Colon 38 Carcinoma; 3 × 60 mg/kg i.p.): 38% | T/C (solid Sarcoma 180; 1 × 60 mg/kg): 109% | Tumor Weight (solid Sarcoma 180; 1 × 60 mg/kg): 1,30 ± 0,30 g | T/C (solid Sarcoma 180; 1 × 100 mg/kg): 86% | Tumor Weight (solid Sarcoma 180; 1 × 100 mg/kg): 1,03 ± 0,26 g | T/C (solid Sarcoma 180; 3 × 60 mg/kg): 39% | Tumor Weight (solid Sarcoma 180; 3 × 60 mg/kg): 0,47 ± 0,12 g

Cl.Nc1ccc([S][Ti]([Cl])([CH]2C=CC=C2)[CH]2C=CC=C2)cc1 [Compound 2, p-aminothiophenolato-chloro-bis(.eta.^5 -cyclopentadienyl)titanium(IV)-hydrochloride]
Optimal Treating Rate (Ehrlich ascites tumor): 100% | Therapeutic Index (LD50/ED90) (Ehrlich ascites tumor): 4,4

O=C(O)C=CC(=O)[O][Ti+2][O]C(=O)C=CC(=O)O.c1cc[cH-]c1.c1cc[cH-]c1 [Compound 3, Bis(hydrogenmaleinato)bis(.eta.^5 -cyclopentadienyl)titanium(IV)]
Optimal Treating Rate (Ehrlich ascites tumor): 100% | Therapeutic Index (LD50/ED90) (Ehrlich ascites tumor): 3,8 | ILS (increase in life span) (ascitic Sarcoma 180; 1 × 80 mg/kg): 95% | Survivors/Animals Treated (ascitic Sarcoma 180; 1 × 80 mg/kg): 1/5 | MST (mean survival time) (ascitic Sarcoma 180; 1 × 80 mg/kg): 32,2 (15-80) d | ILS (increase in life span) (ascitic Sarcoma 180; 1 × 120 mg/kg): 125% | Survivors/Animals Treated (ascitic Sarcoma 180; 1 × 120 mg/kg): 1/5 | MST (mean survival time) (ascitic Sarcoma 180; 1 × 120 mg/kg): 37,2 (21-80) d | T/C (B16 Melanoma; 1 × 120 mg/kg i.p.): 89% | T/C (B16 Melanoma; 3 × 100 mg/kg i.p.): 50% | T/C (Colon 38 Carcinoma; 1 × 120 mg/kg i.p.): 72% | T/C (Colon 38 Carcinoma; 3 × 100 mg/kg i.p.): 50% | T/C (based on mean relative volume of tumor) (Rectum Adenocarcinoma): 89% | T/C (based on mean relative volume of tumor) (Lung Adenocarcinoma): 35% | T/C (based on mean relative volume of tumor) [1]: 65% | T/C (based on mean relative volume of tumor) (Mammary Carcinoma): 40% | T/C (solid Sarcoma 180; 1 × 80 mg/kg): 95% | Tumor Weight (solid Sarcoma 180; 1 × 80 mg/kg): 1,13 ± 0,18 g | T/C (solid Sarcoma 180; 1 × 120 mg/kg): 73% | Tumor Weight (solid Sarcoma 180; 1 × 120 mg/kg): 0,87 ± 0,41 g | T/C (solid Sarcoma 180; 3 × 60 mg/kg): 76% | Tumor Weight (solid Sarcoma 180; 3 × 60 mg/kg): 0,91 ± 0,25 g | T/C (solid Sarcoma 180; 3 × 100 mg/kg): 53% | Tumor Weight (solid Sarcoma 180; 3 × 100 mg/kg): 0,63 ± 0,14 g
